{"source": "patent US20100144690A1", "about": "“MEDICAMENTS AND METHODS FOR PROMOTING WOUND CONTRACTION” (RENOVO LIMITED, priority 2006, published 2010)", "key": {"[1]": {"settings": "cited from earlier work"}, "excisional wounds": {"tested_on": "excisional wounds", "assay": "Excisional wound healing model, wound width and re-epithelialisation three days after wounding", "type": "in vivo, Male Sprague Dawley rats", "settings": "for wound width of excisional wounds: three days after wounding, p<0.05 vs controls", "method": "The guggulsterone (Z) was diluted in a solution containing 1% v/v ethanol (absolute ethanol, 200 proof, for molecular biology, purchased from Sigma-Aldrich) in phosphate buffered saline (PBS) to produce three solutions having concentrations as follows: • 1. 1 ng/100 μl (a 32 nM solution); • 2. 10 ng/100 μl (a 321 nM solution); and • 3. 1000 ng/100 μl (a 32 μM solution). At day 0, Male Sprague Dawley rats (200-250 g) were anaesthetised, shaved and wound sites were marked according to the Renovo rat incisional and excisional wounding template (4 wound model, 2×1 cm wounds at 5 cm from the base of the skull and 1 cm from the midline in each rat and 2×5 mm excisions at 8.5 cm from the base of the skull and 1 cm from the midline of each rat). One hundred microlitres of Guggulsterone (Z) at 1 ng, 10 ng or 1000 ng in 1% v/v ethanol/PBS (EtOH/PBS), were injected intradermally at the target wound sites, A, B, C and D. The intradermal injections caused the formation of a raised bleb, which was then either immediately incised to form 1 cm long experimental wounds at wound positions A and B, or subject to a 5 mm punch biopsy, at wound positions C and D. A separate group of rats were wounded, without any injection, to act as the untreated Naïve control group in addition to the diluent injected control group. All treated wounds were re-injected again 1 day post-wounding with the appropriate treatment via either injection of […] to each of the two margins of the 1 cm wound, or via injection of 25 μl to each of the four quadrants of a 5 mm punch biopsy, and harvested at day 3 post-wounding. […] The wounds were assessed using standard macroscopic wound assessment sheets that include a Visual Analogue Scale (VAS) to quantify the quality of the wounds. The excisions and incisions were analysed microscopically, after histological processing by image analysis for re-epithelialisation (excisions only) and wound width (incisions only) to determine the role of Guggulsterone (Z) on early wound healing. […] The average wound width value was calculated from all of the wounds at each treatment group."}, "incisional wounds": {"tested_on": "incisional wounds", "assay": "Incisional scarring model, macroscopic and microscopic VAS scar assessment 70 days after wounding", "type": "in vivo, Male Sprague Dawley rats", "method": "The guggulsterone (Z) was diluted in a solution containing 1% v/v ethanol (absolute ethanol, 200 proof, for molecular biology, purchased from Sigma-Aldrich) in phosphate buffered saline (PBS) to produce three solutions having concentrations as follows: • 1. 1 ng/100 μl (a 32 nM solution); • 2. 10 ng/100 μl (a 321 nM solution); and • 3. 1000 ng/100 μl (a 32 μM solution). At Day 0, male Sprague Dawley rats (200-250 g) were anaesthetised, shaved and wound sites were marked according to the Renovo rat incisional wounding template (2 wound model, 2×1 cm wounds at 5 cm from the base of the skull and 1 cm from the midline in each rat). […] The scars were assessed using standard macroscopic scar assessment sheets that include a Visual Analogue Scale (VAS) to quantify the quality of the scars. […] 70 days after wounding the experimental rats were killed, and the scars resulting from treated wounds and control wounds assessed both macroscopically and microscopically. The scars of the experimental rats were photographed and assessed using macroscopic scar assessment sheets. […] The best scars (typically of small width with colour, height and contour like normal skin) were scored towards the normal skin end of the scale (the left hand side of the VAS line) and bad scars (typically large width, raised with uneven contours and whiter colour) were scored towards the bad scar end of the scale (the right hand side of the VAS line). The marks were measured from the left hand side to provide the final value for the scar assessment in centimetres (to 1 decimal place). […] Histological slides were stained using Masson's trichrome, and scarring assessed, by two independent observers, using a microscopic visual analogue scale (VAS). […]"}, "[2]": {"settings": "each concentration investigated (1, 10, 1000 ng/100 μl), 70 days post-wounding"}}, "data": [{"molecule": "C/C=C1\\C(=O)CC2C3CCC4=CC(=O)CC[C@]4(C)C3CC[C@]12C", "note": "(stereo partly drawn) [Guggulsterone (Z), (17Z)-Pregna-4,17(20)-diene-3,16-dione-4,17(20)-cis-Pregnadiene-3,16-dione]", "values": [{"measurement": "soluble in DMSO", "setting": "[1]; DMSO, room temperature", "result": 5, "unit": "mg/mL"}, {"measurement": "soluble in ethanol", "setting": "[1]; ethanol", "result": "soluble"}, {"measurement": "wound width of excisional wounds", "setting": "excisional wounds; 1 ng/100 μl (3.2 pmoles per cm of wound)", "result": "significantly decreased wound width"}, {"measurement": "wound width of excisional wounds", "setting": "excisional wounds; 10 ng/100 μl (32 pmoles per cm of wound)", "result": "significantly decreased wound width"}, {"measurement": "promotion of wound contraction, by width of excisional wounds", "setting": "excisional wounds; three days after wound formation", "result": "able to promote wound contraction"}, {"measurement": "inhibition of scarring, macroscopic analysis of scars", "setting": "incisional wounds; [2]", "result": "significantly inhibit scarring"}, {"measurement": "inhibition of scarring, microscopic analysis of scars", "setting": "incisional wounds; [2]", "result": "significantly inhibit scarring"}, {"measurement": "macroscopic appearance of treated scar versus naïve control scar (FIG. 3)", "setting": "incisional wounds; representative images, 70 days after wounding", "result": "considerably more difficult to detect"}]}]}
